Data taken from publication PMC4604124, “In Vitro Characterization of the Pharmacological Properties of the Anti-Cancer Chelator, Bp4eT, and Its Phase I Metabolites” (PLoS ONE, 2015).
Where “and” joins values, the source holds several entries; their conditions need not be identical. Equal entries are not always repeated. Where two headings read alike, the source gives them in different places.

Key:
[1] = system: MCF-7 cells; assay: Cellular 59Fe uptake from 59Fe2-transferrin; format: cell-based, human; set-up: key to Uptake 59Fe, Ave / Uptake 59Fe: % of internalized 59Fe in untreated control cells; conditions: Control Ave = 100
Outline: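 Confluent MCF-7 cells were incubated 3 h at 37°C with 0.75 μM ⁵⁹Fe₂-transferrin (500 pCi/pmol Fe) plus chelator at 25 μM. Membrane-bound ⁵⁹Fe was released with Pronase (1 mg/mL, 30 min, 4°C). Pronase-insensitive internalized ⁵⁹Fe was expressed as % of untreated control.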

[2] = system: HL-60 human promyelocytic leukemia cells; assay: MTT cytotoxicity assay, HL-60 cells; format: cell-based; conditions: for IC50: MTT, read-out: IC50
Outline: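 Cytotoxicity toward HL-60 leukemia cells was measured by MTT after a 72 h/37°C incubation with compounds, following 24 h pre-culture at 10,000 cells/well in 96-well plates. All media contained 0.1% DMSO. Optical density at 570 nm, corrected at 690 nm, gave viability relative to untreated controls (100%). IC50 values came from CalcuSyn 2.0, and data are mean ± SD.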

[3] = Ascorbate oxidation assay (redox activity of iron complexes); format: biochemical;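 for %Fe 30min (ascorbate oxidation, Fe = 100%), průměr (mean): IBE 1 means iron-binding equivalents giving fully coordinated iron-chelator complexes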;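 for %Fe 30min (ascorbate oxidation, Fe = 100%), single replicates: IBE 1 means iron-binding equivalents giving fully coordinated iron-chelator complexes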;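 for %Fe 30min: ascorbate oxidation as % of the Fe control (Fe 100%): IBE 0.1 means iron-binding equivalents with iron in excess over chelator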

## CCNC(=O)NN=C(c1ccccc1)c1ccccn1 [Z-Bp4eS, 2-benzoylpyridine 4-ethylsemicarbazone]
[1]; average of all replicates
  Uptake 59Fe, Ave: 99.1556
[1]; single replicate (three per date)
  Uptake 59Fe: 95.0144 and 99.433 and 101.961 and 99.9491 and 96.6715 and 101.111 and 99.7324 and 96.809 and 101.719
[2]; 3T3/HL-60
  Therapeutic index, IC50 non-cancerous cells / IC50 neoplastic cells: >21.6
[2]; H9c2/HL-60
  Therapeutic index, IC50 non-cancerous cells / IC50 neoplastic cells: 7.4
[2]; HL-60, 72 h/37°C, mean ± SD, n ≥ 4
  IC50: 46.2 ± 1.5 µM
[2]; HL-60, 10 000 b/j, 3 μM, průměr (mean), sheet Z-Bp4eS
  MTT, relative to control (0 = 100): 96.55
[2]; HL-60, 10 000 b/j, 3 μM, single experiment (date), sheet Z-Bp4eS
  MTT, relative to control (0 = 100): 99.8024 and 101.089 and 96.0475 and 94.6794 and 91.1123
[2]; HL-60, 10 000 b/j, 10 μM, průměr (mean), sheet Z-Bp4eS
  MTT, relative to control (0 = 100): 98.03
[2]; HL-60, 10 000 b/j, 10 μM, single experiment (date), sheet Z-Bp4eS
  MTT, relative to control (0 = 100): 97.8586 and 97.7431 and 101.779 and 97.3762 and 95.3935
[2]; HL-60, 10 000 b/j, 30 μM, průměr (mean), sheet Z-Bp4eS
  MTT, relative to control (0 = 100): 90.77
[2]; HL-60, 10 000 b/j, 30 μM, single experiment (date), sheet Z-Bp4eS
  MTT, relative to control (0 = 100): 95.7321 and 90.5946 and 90.8492 and 85.9082
[2]; HL-60, 10 000 b/j, 40 μM, průměr (mean), sheet Z-Bp4eS
  MTT, relative to control (0 = 100): 82.14
[2]; HL-60, 10 000 b/j, 40 μM, single experiment (date), sheet Z-Bp4eS
  MTT, relative to control (0 = 100): 82.3316 and 84.0304 and 91.7648 and 77.576 and 75.0054
[2]; HL-60, 10 000 b/j, 50 μM, průměr (mean), sheet Z-Bp4eS
  MTT, relative to control (0 = 100): 40.92
[2]; HL-60, 10 000 b/j, 50 μM, single experiment (date), sheet Z-Bp4eS
  MTT, relative to control (0 = 100): 42.5442 and 42.5088 and 37.382 and 41.2548
[2]; HL-60, 10 000 b/j, 80 μM, průměr (mean), sheet Z-Bp4eS
  MTT, relative to control (0 = 100): 2.08
[2]; HL-60, 10 000 b/j, 100 μM, průměr (mean), sheet Z-Bp4eS
  MTT, relative to control (0 = 100): 2.48
[2]; HL-60, 10 000 b/j, 300 μM, průměr (mean), sheet Z-Bp4eS
  MTT, relative to control (0 = 100): 2.72
[2]; HL-60, 10 000 b/j, 300 μM, single experiment (date), sheet Z-Bp4eS
  MTT, relative to control (0 = 100): 3.195 and 2.8028 and 2.136 and 2.734
[2]; HL-60, 10 000 b/j, single experiment (date), sheet Z-Bp4eS
  IC50: 46.2 µM and 48.3 µM and 45.5 µM
[2]; Homo sapiens, HL-60, HL-60, 10 000 b/j, průměr (mean), sheet Z-Bp4eS
  IC50: 46.2 µM
[2]; Homo sapiens, HL-60, HL-60, 10 000 b/j, single experiment (date), sheet Z-Bp4eS
  IC50: 44.9 µM
[3]; IBE 0.1, 30 min, mean (průměr)
  %Fe 30min: ascorbate oxidation as % of the Fe control (Fe 100%): 99.02%
[3]; IBE 0.1, time 10, mean (průměr)
  Change of absorbance after subtraction of time 0 (odečet 0): -0.03387
[3]; IBE 0.1, time 20, mean (průměr)
  Change of absorbance after subtraction of time 0 (odečet 0): -0.06534
[3]; IBE 0.1, time 30, mean (průměr)
  Change of absorbance after subtraction of time 0 (odečet 0): -0.09415
[3]; IBE 0.1, čas 0 (time 0), mean (průměr)
  Absorbance (ascorbate, λ = 265 nm): 0.7817
[3]; IBE 0.1, čas 10 (time 10), mean (průměr)
  Absorbance (ascorbate, λ = 265 nm): 0.7478
[3]; IBE 0.1, čas 20 (time 20), mean (průměr)
  Absorbance (ascorbate, λ = 265 nm): 0.7164
[3]; IBE 0.1, čas 30 (time 30), mean (průměr)
  Absorbance (ascorbate, λ = 265 nm): 0.6875
[3]; sheet IBE 1, 30min, Fe 100%, mean
  %Fe 30min (ascorbate oxidation, Fe = 100%), průměr (mean): 102.1%
[3]; sheet IBE 1, 30min, Fe 100%, replicates
  %Fe 30min (ascorbate oxidation, Fe = 100%), single replicates: 100.6% and 105.4% and 99.81% and 137.6% and 115.7% and 98.81% and 93.49% and 86.5% and 81.2%
[3]; sheet IBE 1, time 0, mean of 9 readings
  raw reading at čas 0 (time 0), průměr (mean): 0.8114
[3]; sheet IBE 1, time 0, replicates of 2014-03-24 (two runs) and 2014-03-25
  raw reading at čas 0 (time 0), single replicates: 0.8361 and 0.825 and 0.7812 and 0.7956 and 0.8012 and 0.8226 and 0.8158 and 0.7997 and 0.8255
[3]; sheet IBE 1, time 10, mean
  odečet 0 (reading minus time 0 reading) at čas 10, průměr (mean): -0.03354
[3]; sheet IBE 1, time 10, mean of 9 readings
  raw reading at čas 10 (time 10), průměr (mean): 0.7779
[3]; sheet IBE 1, time 10, replicates
  odečet 0 (reading minus time 0 reading) at čas 10, single replicates: -0.0282 and -0.0302 and -0.027 and -0.05761 and -0.03481 and -0.02931 and -0.03593 and -0.03173 and -0.02703
